The subject of one test is Pythium ultimum. Description: Mycelial growth test. The format is cell-based. Conditions: Globisporangium ultimum, 72 h, PU, read-out: Percent Fungus Growth Inhibition.
In a further test the test system is Cercospora beticola. Description: whole plant or invertebrate. Conditions: in Beta vulgaris, foliar, 24 h, read-out: Percent Disease Control, curative, sugar beet leaf spot.
The next test deals with Fusarium solani. The experiment in a line: Soil treatment, bean root rot. The format is in vivo. Conditions: Fusarium solani, soil, 336 h; 150 ppm suspension, 3.8 mg active per pot; read-out: Percent Disease Control, seed/soil, bean root rot. As to the method: In a similar manner the soil around a bean seedling was drenched with a sufficient amount of 150 ppm suspension of test chemical to provide 3.8 mg active per pot. Twenty-four hours later the soil was inoculated with a suspension of minced mycelium of Fusarium solani. The inoculated plants were then placed in a greenhouse, evaluated after fourteen days, and percent control of root rot damage calculated. The results, reported in Table III, indicate only a few of the compounds tested are effective in treating Bean Root Rot but that these provide a high degree of control.

The term inhibition denotes the percentage by which the read-out fell short of the control.

For the molecule `O=c1c(Cl)nsnc1Oc1ccccc1Cl` [Compound 14, 3-chloro-5-(2-chlorophenoxy)-4H--1,2,6-thiadiazin-4-one], in the test on Pythium ultimum, the inhibition at 5 ppm was 31%, the inhibition at 10 ppm was determined as 53%, the inhibition at 20 ppm was found to be 100% and the inhibition at 40 ppm was 100%. Besides, the pest or weed control at 150 ppm in the test with Cercospora beticola amounted to 0%. Also, the pest or weed control at 150 ppm, 3.8 mg/pot in the test with Fusarium solani was found to be 90%.

For `O=c1c(Cl)nsnc1Oc1ccc(Br)cc1` [Compound 15, 3-chloro-5-(4-bromophenoxy)-4H--1,2,6-thiadiazin-4-one], in the test on Pythium ultimum, the inhibition at 5 ppm is 47%, the inhibition at 10 ppm was 76%, the inhibition at 20 ppm was 80% and the inhibition at 40 ppm is 76%. In the test with Cercospora beticola, the pest or weed control at 150 ppm was 0%. In addition, the pest or weed control at 150 ppm, 3.8 mg/pot in the test with Fusarium solani came to 0%.

For `O=c1c(Cl)nsnc1Oc1ccc(Cl)c(Cl)c1` [Compound 16, 3-chloro-5-(3,4-dichlorophenoxy)-4H--1,2,6-thiadiazin-4-one], in the test with Pythium ultimum, the inhibition at 5 ppm is 7%, the inhibition at 10 ppm was 11%, the inhibition at 20 ppm was determined as 47% and the inhibition at 40 ppm was found to be 56%. Also, in the test on Cercospora beticola, the pest or weed control at 150 ppm stood at 95%. In addition, the pest or weed control at 150 ppm, 3.8 mg/pot in the test with Fusarium solani is 0%.

Regarding `O=c1c(Cl)nsnc1Oc1ccc(Cl)cc1Cl` [Compound 17, 3-chloro-5-(2,4-dichlorophenoxy)-4H--1,2,6-thiadiazin-4-one], in the test with Pythium ultimum, the inhibition at 5 ppm was found to be 42%, the inhibition at 10 ppm was 80%, the inhibition at 20 ppm came out at 100% and the inhibition at 40 ppm is 100%. Moreover, the pest or weed control at 150 ppm with Cercospora beticola worked out at 95%. In addition, the pest or weed control at 150 ppm, 3.8 mg/pot in the test on Fusarium solani was 0%.

With `O=c1c(Cl)nsnc1Oc1cccc(Cl)c1Cl` [Compound 19, 3-chloro-5-(2,3-dichlorophenoxy)-4H--1,2,6-thiadiazin-4-one], in the test with Pythium ultimum, the inhibition at 5 ppm is 20%, the inhibition at 10 ppm turned out to be 80%, the inhibition at 20 ppm came to 100% and the inhibition at 40 ppm worked out at 100%. The pest or weed control at 150 ppm with Cercospora beticola was 0%. In addition, the pest or weed control at 150 ppm, 3.8 mg/pot in the test with Fusarium solani was 0%.

On to `O=c1c(Cl)nsnc1Oc1cc(Cl)cc(Cl)c1` [Compound 20, 3-chloro-5-(3,5-dichlorophenoxy)-4H--1,2,6-thiadiazin-4-one], for which, in the test with Pythium ultimum, the inhibition at 5 ppm was 53%, the inhibition at 10 ppm came out at 91%, the inhibition at 20 ppm is 91% and the inhibition at 40 ppm amounted to 100%. For the same molecule, in the test with Cercospora beticola, the pest or weed control at 150 ppm turned out to be 95%. Also, in the test on Fusarium solani, the pest or weed control at 150 ppm, 3.8 mg/pot stood at 75%.

With `Cc1cccc(Oc2nsnc(Cl)c2=O)c1` [Compound 21, 3-chloro-5-(3-methylphenoxy)-4H--1,2,6-thiadiazin-4-one], in the test with Pythium ultimum, the inhibition at 5 ppm worked out at 27%, the inhibition at 10 ppm came out at 33%, the inhibition at 20 ppm is 100% and the inhibition at 40 ppm worked out at 100%. Besides, the pest or weed control at 150 ppm with Cercospora beticola worked out at 100%. Further, the pest or weed control at 150 ppm, 3.8 mg/pot with Fusarium solani came to 0%.

In the case of `Cc1ccccc1Oc1nsnc(Cl)c1=O` [Compound 22, 3-chloro-5-(2-methylphenoxy)-4H--1,2,6-thiadiazin-4-one], in the test on Pythium ultimum, the inhibition at 5 ppm was 20%, the inhibition at 10 ppm stood at 64%, the inhibition at 20 ppm stood at 96% and the inhibition at 40 ppm is 100%. Moreover, the pest or weed control at 150 ppm with Cercospora beticola was determined as 0%. Also, the pest or weed control at 150 ppm, 3.8 mg/pot in the test with Fusarium solani turned out to be 0%.

Take `Cc1ccc(Oc2nsnc(Cl)c2=O)c(C)c1` [Compound 23, 3-chloro-5-(2,4-dimethylphenoxy)-4H--1,2,6-thiadiazin-4-one]: in the test on Pythium ultimum, the inhibition at 5 ppm came to 62%, the inhibition at 10 ppm amounted to 69%, the inhibition at 20 ppm was determined as 71% and the inhibition at 40 ppm turned out to be 100%. Besides, in the test with Cercospora beticola, the pest or weed control at 150 ppm turned out to be 100%. Besides, the pest or weed control at 150 ppm, 3.8 mg/pot in the test on Fusarium solani amounted to 0%.

For the molecule `Cc1cccc(C)c1Oc1nsnc(Cl)c1=O` [Compound 24, 3-chloro-5-(2,6-dimethylphenoxy)-4H--1,2,6-thiadiazin-4-one], in the test with Pythium ultimum, the inhibition at 5 ppm stood at 0%, the inhibition at 10 ppm amounted to 47%, the inhibition at 20 ppm turned out to be 64% and the inhibition at 40 ppm stood at 100%. In the test with Cercospora beticola, the pest or weed control at 150 ppm was found to be 50%. In addition, in the test with Fusarium solani, the pest or weed control at 150 ppm, 3.8 mg/pot amounted to 0%.

The values are drawn from patent US4450269A, “Mono-5-substituted-3-chloro-4H-1,2,6-thiadiazin-4-one antifungal agents” (FMC Corporation, priority 1980, dated 1984).
